From paper PMC4835225 (Chembiochem : a European journal of chemical biology, 2015) come the findings set out here.

The assay has as its target hENO1 (Homo sapiens, UniProt P06733). Briefly: isothermal titration calorimetry. It is filed as binding. The conditions noted are these: stoichiometry 1.4-1.6 molecules of 1 per hENO1. On the technique in general: ITC needs no label: the signal is the heat of the interaction.

hENO1, sequence (P06733 2-434): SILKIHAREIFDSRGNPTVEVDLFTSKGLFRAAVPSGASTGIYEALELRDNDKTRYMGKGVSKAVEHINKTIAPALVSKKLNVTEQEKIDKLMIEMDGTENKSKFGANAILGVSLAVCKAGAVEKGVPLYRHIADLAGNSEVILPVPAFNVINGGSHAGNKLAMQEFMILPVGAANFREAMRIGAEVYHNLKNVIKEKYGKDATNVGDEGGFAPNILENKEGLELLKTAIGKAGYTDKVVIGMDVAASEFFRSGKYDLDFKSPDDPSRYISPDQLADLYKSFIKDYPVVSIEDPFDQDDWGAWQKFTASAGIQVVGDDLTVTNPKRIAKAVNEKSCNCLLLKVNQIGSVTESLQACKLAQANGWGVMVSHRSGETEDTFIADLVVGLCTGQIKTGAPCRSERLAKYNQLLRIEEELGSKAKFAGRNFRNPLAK

For `O=C1c2c(cc(O)c([C@@H]3CCc4cc(Cl)c(Cl)n43)c2O)-c2cc(Cl)c(Cl)n21` [compound 1, (-)-chlorizidine A], the Kd was found to be 1900 ± 900 nM.

By Kd is commonly meant the free concentration of one partner at which half of the binding sites on the other are occupied at equilibrium, for simple one-to-one binding.
